Test results published in patent publication US20200000825A1, “METHODS AND COMPOSITIONS FOR TREATING AND PREVENTING VIRAL INFECTIONS” (ENTERIN LABORATORIES, INC., priority 2009, published 2020).

Columns and labels:
[1] = system: Eastern Equine Encephalitis Virus; format: in vivo
[2] = system: Human umbilical endothelial cells; assay: Kinetics of uptake of 3H-labelled aminosterol into endothelial cells; settings: for Uptake into endothelial cells: 1 μg/ml 3H-aminosterol
[3] = cited from earlier work
[4] = system: Yellow Fever; format: in vivo, Syrian hamsters; settings: squalamine 15 mg/kg/d s.c. qd, -24 h to 6 dpi
[5] = system: human Hepatitis B virus; assay: Hepatitis B virus replication in primary human hepatocytes, PCR (Example 12); format: cell-based
Description: Primary human hepatocytes were established in a 96 well microtiter plate. Squalamine was then added at concentrations of 2, 6 or 20 μg/ml followed by an inoculum of Hep B virus, and then in culture for 16 hours, after which fresh medium was introduced, and the cells maintained in culture for 14 days. In a second experiment, squalamine at 6 or 20 μg/ml was added to the cells at 24 hours post inoculation for a 16 hour exposure, followed by removal of medium, replacement with fresh medium, and continued culture for 14 days. Viral growth was measured by PCR using viral specific primers and normalized to the total RNA extracted from each corresponding well.

[6] = system: human immunodeficiency virus (HIV)
[7] = biological target: T1, Human Oct 1 (Homo sapiens, UniProt O15245); assay: MPP uptake inhibition (transport competition) assay in CHO cells over-expressing a human Oct transporter; format: cell-based
T1 sequence (O15245 1-554): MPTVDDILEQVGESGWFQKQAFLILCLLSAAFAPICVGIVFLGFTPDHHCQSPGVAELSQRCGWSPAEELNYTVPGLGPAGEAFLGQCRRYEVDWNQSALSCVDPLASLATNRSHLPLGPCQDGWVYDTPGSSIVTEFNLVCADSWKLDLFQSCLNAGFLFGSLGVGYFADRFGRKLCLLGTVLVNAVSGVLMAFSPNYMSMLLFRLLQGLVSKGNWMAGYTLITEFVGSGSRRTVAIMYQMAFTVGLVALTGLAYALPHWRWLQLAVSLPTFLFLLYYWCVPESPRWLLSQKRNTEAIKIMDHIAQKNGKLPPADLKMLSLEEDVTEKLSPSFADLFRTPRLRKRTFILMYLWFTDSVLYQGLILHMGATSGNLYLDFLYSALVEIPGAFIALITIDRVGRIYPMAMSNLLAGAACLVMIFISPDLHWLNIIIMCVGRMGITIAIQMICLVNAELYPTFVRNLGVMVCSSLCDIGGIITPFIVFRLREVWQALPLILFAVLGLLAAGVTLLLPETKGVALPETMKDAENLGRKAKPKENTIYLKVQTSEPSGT
Description: (§1) This example determines whether squalamine is a substrate for the organic cation transporter (Oct). This determination employed a standard transport competition assay, described in the literature (Lips, Volk et al. 2005).
(§2) Chinese hamster ovary cells, previously engineered to over-express a specific human Oct transporter were used in the assay. In this example, the effect of a specific concentration of an amino sterol is determined on the intracellular uptake of radiolabelled 1-methyl-4-phenylpyridine (MPP) (at 0.01 μM), measured after a 1-second exposure. […] IC50 refers to the concentration of squalamine or 1436 required to inhibit MPP uptake by 50%. Table 1 below describes the affinity of squalamine and Amino sterol 1436 for human organic cation transporters (Human Oct 1, Human Oct 2, and Human Oct 3) based upon the MPP uptake inhibition assay.

[8] = biological target: T2, Human Oct 3 (Homo sapiens, UniProt O75751); assay: as above; format: cell-based; settings: 100 μM aminosterol, radiolabelled MPP 0.01 μM, 1-second exposure
T2 sequence (O75751 1-556): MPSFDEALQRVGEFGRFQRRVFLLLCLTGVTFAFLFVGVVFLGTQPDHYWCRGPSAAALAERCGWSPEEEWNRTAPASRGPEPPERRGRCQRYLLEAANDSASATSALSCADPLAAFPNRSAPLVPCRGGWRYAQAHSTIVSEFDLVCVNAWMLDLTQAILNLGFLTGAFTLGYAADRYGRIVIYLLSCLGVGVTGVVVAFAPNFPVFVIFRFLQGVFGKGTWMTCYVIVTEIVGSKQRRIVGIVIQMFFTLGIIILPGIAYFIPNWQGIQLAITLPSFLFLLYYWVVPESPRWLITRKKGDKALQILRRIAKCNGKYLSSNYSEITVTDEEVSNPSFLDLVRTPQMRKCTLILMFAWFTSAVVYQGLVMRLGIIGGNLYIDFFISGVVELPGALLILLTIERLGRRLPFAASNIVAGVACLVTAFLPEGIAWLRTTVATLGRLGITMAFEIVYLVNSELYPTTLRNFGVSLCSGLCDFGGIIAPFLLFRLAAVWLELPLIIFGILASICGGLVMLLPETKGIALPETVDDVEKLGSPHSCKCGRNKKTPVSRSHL
Description: as §1, §2

[9] = biological target: T3, Human Oct 2 (Homo sapiens, UniProt O15244); assay: as above; format: cell-based
T3 sequence (O15244 1-555): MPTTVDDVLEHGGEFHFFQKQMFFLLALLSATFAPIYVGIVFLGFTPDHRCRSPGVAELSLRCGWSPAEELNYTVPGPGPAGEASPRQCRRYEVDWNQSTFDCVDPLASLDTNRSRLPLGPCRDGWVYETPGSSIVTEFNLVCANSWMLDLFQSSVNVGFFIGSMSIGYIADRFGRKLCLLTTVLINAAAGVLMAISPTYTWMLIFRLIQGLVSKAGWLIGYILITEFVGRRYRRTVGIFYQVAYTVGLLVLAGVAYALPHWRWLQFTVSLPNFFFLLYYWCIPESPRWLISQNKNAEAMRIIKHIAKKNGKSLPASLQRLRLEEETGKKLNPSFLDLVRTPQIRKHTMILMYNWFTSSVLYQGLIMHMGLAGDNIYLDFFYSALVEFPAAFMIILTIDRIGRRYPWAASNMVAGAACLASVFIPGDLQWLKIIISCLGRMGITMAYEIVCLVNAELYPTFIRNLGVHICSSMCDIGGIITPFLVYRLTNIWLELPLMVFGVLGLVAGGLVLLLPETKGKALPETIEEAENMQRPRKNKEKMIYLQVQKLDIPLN
Description: as §1, §2

[10] = 100 μM aminosterol, radiolabelled MPP 0.01 μM, 1-second exposure
[11] = read-out: IC50 (concentration required to inhibit MPP uptake by 50%)

In the case of `CC(C)[C@@H](CC[C@@H](C)[C@H]1CC[C@H]2[C@@H]3[C@H](O)C[C@H]4C[C@@H](NCCCNCCCCN)CC[C@]4(C)[C@H]3CC[C@]12C)OS(=O)(=O)O` [Squalamine, squalamine], the Efficacy in mice [1] is reported as “ineffective”, the “Uptake into endothelial cells” value ([2]; 5 min) is reported as 250 Molecules/cell (×10^−6) and the “Uptake into endothelial cells” value ([2]; 30 min) is reported as 400 Molecules/cell (×10^−6). The “Uptake into endothelial cells” value ([2]; 60 min) was 500 Molecules/cell (×10^−6), the “Uptake into endothelial cells” value ([2]; 120 min) was 500 Molecules/cell (×10^−6) and the “Uptake into endothelial cells” value ([2]; 180 min) was 600 Molecules/cell (×10^−6). The “Entry into the HUVEC relative to Aminosterol 1436” value ([2]; squalamine versus Aminosterol 1436) was “over 2 orders of magnitude”, the “Patients with dose-limiting toxicity (grade 3/4 arthralgia, myalgia, neutropenia)” value ([3]; 400 mg/m(2)/day with paclitaxel and carboplatin) was “two of three” and the “Tolerability of the combination” value ([3]; continuous daily for 5 days, with paclitaxel and carboplatin on day 1) was “well tolerated”. For the same compound, the Survival [4] was 70%, the “Inhibition of viral production” value ([5]; 2 μg/ml, added at the outset of infection) was 14% and the “Inhibition of viral production” value ([5]; 6 μg/ml, added at 24 hours) was 30%. For the same compound, the “Inhibition of viral production” value ([5]; 6 μg/ml, added at the onset of infection) was 54%, the “Inhibition of viral production” value ([5]; 20 μg/ml, added at 24 hours) was 64% and the “Inhibition of viral production” value ([5]; 20 μg/ml, added during initial stages of infection) was 83%. For the same compound, the “Inhibition of HIV infection” value [6] was “about 50%”, the “Toxicity towards the HeLa cells” value ([6]; 30 μg/ml) was “no evidence of toxicity” and the “% Inhibition of MPP uptake caused by 100 μM” value (from here on “% Inhibition”) [7, 10] was 25%. For the same compound, the IC50 [7, 11] was 34 µM, the “% Inhibition” value [8] was 60% and the “% Inhibition” value [9, 10] was 40%. For the same compound, the IC50 [9, 11] was 50 µM.
